Values quoted from earlier work in patent US20070154432A1, “Compositions and methods for hair growth” (priority 2005, published 2007).

Key:
5α-alpha reductase = conditions: individually shown / studies have suggested
[1] = 200 individual; published in the Federal Register

Structure (SMILES) | inhibition of 5α-alpha reductase (in words) (5α-alpha reductase) | toxicity, irritation and allergenicity by Schwartz patch test [1]
CCCCC/C=C\C/C=C\C/C=C\CCCCC(=O)O [GLA, Gamma Linolenic Acid] | inhibit | –
CCCCC/C=C\C/C=C\CCCCCCCC(=O)O [linoleic acid, Linoleic Acid] | inhibit | –
[Zn] [zinc] | inhibits | –
CC/C=C\C/C=C\C/C=C\CCCCCCCC(=O)O [ALA, Alpha Linolenic Acid] | inhibit | –
NC(=O)NC1NC(=O)NC1=O (centres unmarked) [Allantoin, allantoin] | – | nontoxic, nonirritating and non-allergenic
